Structures are written as SMILES.

The target in the assay is human, KCNT1 (Homo sapiens (Human), UniProt Q5JUK3). Nature of the assay: FLIPR Tl/K Flux Assay. The conditions noted are these: HEK293 cells stably expressing human KCNT1; Tl+ flux stimulated with EC80 of agonist Loxapine. Type of assay: cell-based. The gist of the method: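 Inhibition values come from a Hill-equation fit of % inhibition versus log concentration, using normalized fluorescence (Fmax/Fmin) over a 160 s read. The read followed stimulation with Tl+ plus EC80 agonist loxapine after 30 min compound pre-incubation at 25 °C. Cells were KCNT1-expressing HEK293, dye-loaded 1 h in pH 7.4 HEPES/HBSS with 5 mM probenecid.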
human, KCNT1, sequence (Q5JUK3 whole entry): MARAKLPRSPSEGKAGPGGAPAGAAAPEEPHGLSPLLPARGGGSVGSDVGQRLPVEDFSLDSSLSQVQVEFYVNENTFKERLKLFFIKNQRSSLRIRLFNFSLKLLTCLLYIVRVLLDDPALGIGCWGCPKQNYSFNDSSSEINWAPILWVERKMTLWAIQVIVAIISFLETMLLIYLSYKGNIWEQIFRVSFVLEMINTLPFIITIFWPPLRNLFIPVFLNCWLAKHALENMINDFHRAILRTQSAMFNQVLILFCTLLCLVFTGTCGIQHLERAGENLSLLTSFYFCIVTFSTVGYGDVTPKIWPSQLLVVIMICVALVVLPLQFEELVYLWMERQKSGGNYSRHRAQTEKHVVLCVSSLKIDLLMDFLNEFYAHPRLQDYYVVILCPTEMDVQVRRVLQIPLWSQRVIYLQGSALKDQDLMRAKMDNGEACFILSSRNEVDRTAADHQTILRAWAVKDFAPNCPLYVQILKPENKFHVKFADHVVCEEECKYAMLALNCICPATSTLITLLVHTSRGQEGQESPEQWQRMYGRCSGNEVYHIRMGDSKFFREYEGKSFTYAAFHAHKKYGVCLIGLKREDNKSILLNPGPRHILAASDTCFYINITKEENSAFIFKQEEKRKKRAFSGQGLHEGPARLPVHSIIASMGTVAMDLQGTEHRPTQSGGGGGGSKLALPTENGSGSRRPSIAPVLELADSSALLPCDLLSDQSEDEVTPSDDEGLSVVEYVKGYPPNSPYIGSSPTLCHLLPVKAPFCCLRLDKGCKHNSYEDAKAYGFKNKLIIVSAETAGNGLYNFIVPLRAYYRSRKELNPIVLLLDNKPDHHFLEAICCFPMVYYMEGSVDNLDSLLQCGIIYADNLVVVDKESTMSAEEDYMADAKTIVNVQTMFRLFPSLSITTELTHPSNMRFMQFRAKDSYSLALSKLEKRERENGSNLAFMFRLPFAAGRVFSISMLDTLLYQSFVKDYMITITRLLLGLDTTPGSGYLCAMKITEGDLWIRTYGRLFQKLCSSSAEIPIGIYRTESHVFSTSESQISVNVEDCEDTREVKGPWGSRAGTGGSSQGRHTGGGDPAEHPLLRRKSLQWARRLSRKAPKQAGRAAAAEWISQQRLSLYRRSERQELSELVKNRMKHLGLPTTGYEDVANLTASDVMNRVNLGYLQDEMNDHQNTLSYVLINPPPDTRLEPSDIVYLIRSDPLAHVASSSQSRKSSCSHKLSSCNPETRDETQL
Usually IC50 stands for the concentration that gives 50% inhibition. Read a high IC50 as a need for much substance. Take `Cc1cc(F)cc(C(=O)N[C@H]2CCc3nn(-c4ccnc(C(F)(F)F)c4)cc32)c1` (single isomer, unassigned) [Compound I-384a]: the IC50 is less than 250 nM.

As to `Cn1nc(CC#N)cc1C(=O)N[C@H]1CCCc2nn(-c3ccnc(C(F)(F)F)c3)cc21` [Compound I-3a], the IC50 lay in the range of 500 to 1000 nM.

In the case of `CS(=O)(=O)c1ccc(C(=O)N[C@H]2CCc3nn(-c4ccnc(C(F)(F)F)c4)cc32)cc1` [Compound I-96a], the IC50 was more than 1000 nM.

Compound `O=C(N[C@H]1CCCn2nc(-c3ccnc(C(F)(F)F)c3)cc21)c1cc2n(n1)CCO2` [Compound I-436a] came in with a 50% inhibitory concentration (IC50) of more than 1000 nM.

Compound `O=C(N[C@H]1CCCc2oc(-c3ccnc(C(F)(F)F)c3)nc21)C12CC(C(F)(F)F)(C1)C2` [Compound I-507a, (S)-3-(Trifluoromethyl)-N-(2-(2-(trifluoromethyl)pyridin-4-yl)-4,5,6,7-tetrahydrobenzo[d]oxazol-4-yl)bicyclo[1.1.1]pentane-1-carboxamide] had an IC50 of less than 250 nM.

With `Cn1nc(C(F)(F)F)cc1C(=O)N[C@H]1CCCc2cc(-c3ccnc(C(F)(F)F)c3)sc21` [Compound I-81a], the IC50 was less than 250 nM.

The compound `O=C(N[C@H]1CCc2nn(-c3ccnc(C(F)(F)F)c3)cc21)c1cnn(C(F)(F)F)c1` [Compound I-566a, (S)-1-(Trifluoromethyl)-N-(2-(2-(trifluoromethyl)pyridin-4-yl)-2,4,5,6-tetrahydrocyclopenta[c]pyrazol-4-yl)-1H-pyrazole-4-carboxamide] had an IC50 of less than 250 nM.

On to `COc1cc(-c2cc3n(n2)CC[C@@H]3NC(=O)c2cc(C(F)(F)F)nn2C)ccn1` [Compound I-427a], for which the IC50 was less than 250 nM.

The compound `Cc1cnc(C(F)(F)F)cc1-c1cc2n(n1)CC[C@H]2NC(=O)c1nc(C(F)(F)F)nn1C` [Compound I-482b] had an IC50 of 500 to 1000 nM.

`CC(F)(F)c1cc(-c2nc3c(o2)CCCC3NC(=O)c2cn(C(F)(F)F)nc2C(F)F)ccn1` (single isomer, unassigned) [Compound I-535] had an IC50 of less than 250 nM.

Take `CC(F)(F)c1cc(-c2nc3c(o2)CCC[C@H]3NC(=O)c2cccc(F)c2)ccn1` [Compound I-508b, (R)—N-(2-(2-(1,1-difluoroethyl)pyridin-4-yl)-4,5,6,7-tetrahydrobenzo[d]oxazol-4-yl)-3-fluorobenzamide]: the IC50 is more than 1000 nM.

For the compound `N#CC12CC(C(=O)N[C@H]3CCn4nc(-c5ccnc(C(F)(F)F)c5)cc43)(C1)C2` [Compound I-491a, (S)-3-Cyano-N-(2-(2-(trifluoromethyl)pyridin-4-yl)-5,6-dihydro-4H-pyrrolo[1,2-b]pyrazol-4-yl)bicyclo[1.1.1]pentane-1-carboxamide], the half-inhibitory concentration (IC50) is 500 to 1000 nM.

As to `Cc1cnc(C(F)(F)F)cc1-c1cc2n(n1)CCC[C@@H]2NC(=O)c1cc(C(F)(F)F)nn1C` [Compound I-122a, (S)-1-Methyl-N-(2-(5-methyl-2-(trifluoromethyl)pyridin-4-yl)-4,5,6,7-tetrahydropyrazolo[1,5-a]pyridin-4-yl)-3-(trifluoromethyl)-1H-pyrazole-5-carboxamide], the IC50 is less than 250 nM.

For the compound `COc1cc(-c2cc3n(n2)CCC[C@@H]3NC(=O)c2cc(C(F)(F)F)nn2C)cc(OC)n1` [Compound I-344a], the IC50 is more than 1000 nM.

The compound `CC(C)c1cc(-n2cc3c(n2)CC[C@@H]3NC(=O)c2cc(C(F)(F)F)nn2C)ccn1` [Compound I-70a] yielded an IC50 of less than 250 nM.

As for `O=C(N[C@H]1CCc2nn(-c3ccnc(C(F)(F)F)c3)cc21)c1cnc(C(F)(F)F)cn1` [Compound I-564a, (S)-5-(Trifluoromethyl)-N-(2-(2-(trifluoromethyl)pyridin-4-yl)-2,4,5,6-tetrahydrocyclopenta[c]pyrazol-4-yl)pyrazine-2-carboxamide], the IC50 is less than 250 nM.

Take `O=C(N[C@H]1CCCc2nc(-c3cc(C4CC4)ncc3F)oc21)c1cc(Cl)cc(Cl)c1` [Compound I-157a, (S)-3,5-Dichloro-N-(2-(2-cyclopropyl-5-fluoropyridin-4-yl)-4,5,6,7-tetrahydrobenzo[d]oxazol-7-yl)benzamide]: the IC50 was less than 250 nM.

On to `Cn1nc(C(F)(F)F)cc1C(=O)NC1CCCCc2nn(-c3ccnc(C(F)(F)F)c3)cc21` (racemic) [Compound I-45, (rac)-1-Methyl-3-(trifluoromethyl)-N-(2-(2-(trifluoromethyl)pyridin-4-yl)-2,4,5,6,7,8-hexahydrocyclohepta[c]pyrazol-4-yl)-1H-pyrazole-5-carboxamide], for which the IC50 was less than 250 nM.

As to `Cn1nc(C(F)(F)F)nc1C(=O)N[C@H]1CCn2nc(-c3ccnc(C(F)(F)F)c3)cc21` [Compound I-314a, (S)-1-Methyl-3-(trifluoromethyl)-N-(2-(2-(trifluoromethyl)pyridin-4-yl)-5,6-dihydro-4H-pyrrolo[1,2-b]pyrazol-4-yl)-1H-1,2,4-triazole-5-carboxamide], the concentration for half-maximal inhibition (IC50) is less than 250 nM.

Compound `CCc1[nH]nc(C(=O)N[C@H]2CCCn3nc(-c4ccnc(C(F)(F)F)c4)cc32)c1F` [Compound I-439a] gave an IC50 of less than 250 nM.

Compound `O=C(N[C@H]1CCCc2oc(-c3ccnc(C(F)(F)F)c3)nc21)c1cccc(C(F)(F)F)c1` [Compound I-251a, (S)-3-(Trifluoromethyl)-N-(2-(2-(trifluoromethyl)pyridin-4-yl)-4,5,6,7-tetrahydrobenzo[d]oxazol-4-yl)benzamide] came in with a half-inhibitory concentration (IC50) of less than 250 nM.

As to `COc1cc(-c2nc3c(o2)[C@@H](NC(=O)c2cc(Cl)cc(Cl)c2)CCC3)ccn1` [Compound I-150a, (S)-3,5-Dichloro-N-(2-(2-methoxypyridin-4-yl)-4,5,6,7-tetrahydrobenzo[d]oxazol-7-yl)benzamide], the IC50 is less than 250 nM.

Regarding `Cn1nc(C(F)(F)F)cc1C(=O)N[C@H]1CCCc2cc(-c3ccnc(C(F)(F)F)c3)[nH]c21` [Compound I-89a, (S)-1-Methyl-3-(trifluoromethyl)-N-(2-(2-(trifluoromethyl)pyridin-4-yl)-4,5,6,7-tetrahydro-1H-indol-7-yl)-1H-pyrazole-5-carboxamide], the IC50 is more than 1000 nM.

The compound `COc1cc(-c2cc3n(n2)CC[C@@H]3NC(=O)c2cc(C(F)(F)F)nn2C)c(C(F)(F)F)cn1` [Compound I-172a, (S)-N-(2-(2-Methoxy-5-(trifluoromethyl)pyridin-4-yl)-5,6-dihydro-4H-pyrrolo[1,2-b]pyrazol-4-yl)-1-methyl-3-(trifluoromethyl)-1H-pyrazole-5-carboxamide] yielded an IC50 of less than 250 nM.

Take `O=C(N[C@@H]1CCc2nn(-c3ccnc(C(F)(F)F)c3)cc21)c1cc(F)cc(F)c1` [Compound I-100b]: the IC50 is more than 1000 nM.

`Cn1nc(C(F)(F)F)cc1C(=O)N[C@H]1CCCCc2nn(-c3ccnc(C(F)(F)F)c3)cc21` [Compound I-45a, (S)-1-methyl-3-(trifluoromethyl)-N-(2-(2-(trifluoromethyl)pyridin-4-yl)-2,4,5,6,7,8-hexahydrocyclohepta[c]pyrazol-4-yl)-1H-pyrazole-5-carboxamide] yielded an IC50 of less than 250 nM.

`O=C(N[C@H]1CCn2nc(-c3cc(C(F)(F)F)ncc3F)cc21)c1ccn2nccc2c1` [Compound I-549a]: the IC50 is less than 250 nM.

Compound `Cn1cc(C(=O)N[C@H]2CCCn3nc(-c4ccnc(C(F)(F)F)c4)cc32)c(C(F)F)n1` [Compound I-415a] yielded an IC50 of less than 250 nM.

`Cn1nc(C(F)(F)F)cc1C(=O)N[C@H]1CCCc2nn(-c3ccnc(C#N)c3)cc21` [Compound I-375a]: the IC50 is more than 1000 nM.

`Cn1nc(C(F)(F)F)cc1C(=O)NC1CCCn2nc(-c3ccnc(C(F)(F)F)c3)cc21` (racemic) [Compound I-42, (rac)-1-Methyl-3-(trifluoromethyl)-N-(2-(2-(trifluoromethyl)pyridin-4-yl)-4,5,6,7-tetrahydropyrazolo[1,5-a]pyridin-4-yl)-1H-pyrazole-5-carboxamide]: the 50% inhibitory concentration (IC50) was less than 250 nM.

Compound `Cn1nc(C(F)(F)F)cc1C(=O)NC1CCCc2nn(-c3cc[nH]c(=O)c3)cc21` (racemic) [Compound I-35, (rac)-1-Methyl-N-(2-(2-oxo-1,2-dihydropyridin-4-yl)-4,5,6,7-tetrahydro-2H-indazol-4-yl)-3-(trifluoromethyl)-1H-pyrazole-5-carboxamide] returned a concentration for half-maximal inhibition (IC50) of more than 1000 nM.

Compound `Cn1nc(C(F)(F)F)cc1C(=O)N[C@@H]1CCc2cnc(-c3ccnc(C(F)(F)F)c3)nc21` [Compound I-46b, (R)-1-methyl-3-(trifluoromethyl)-N-(2-(2-(trifluoromethyl)pyridin-4-yl)-6,7-dihydro-5H-cyclopenta[d]pyrimidin-7-yl)-1H-pyrazole-5-carboxamide] yielded an IC50 of more than 1000 nM.

As for `CCc1cc(C#N)cc(C(=O)N[C@H]2CCc3nn(-c4ccnc(C(F)(F)F)c4)cc32)c1` [Compound I-246a, (S)-3-Cyano-5-ethyl-N-(2-(2-(trifluoromethyl)pyridin-4-yl)-2,4,5,6-tetrahydrocyclopenta[c]pyrazol-4-yl)benzamide], the 50% inhibitory concentration (IC50) is less than 250 nM.

Compound `COc1cc(-c2cc3n(n2)CC[C@@H]3NC(=O)c2cnn(C(F)(F)F)c2)c(F)cn1` [Compound I-577a, (S)-N-(2-(5-Fluoro-2-methoxypyridin-4-yl)-5,6-dihydro-4H-pyrrolo[1,2-b]pyrazol-4-yl)-1-(trifluoromethyl)-1H-pyrazole-4-carboxamide] registered an IC50 of less than 250 nM.

On to `O=C(N[C@H]1CCCn2nc(-c3ccnc(C(F)(F)F)c3)cc21)c1cnn(C(F)(F)F)c1C(F)(F)F` [Compound I-529a, (S)-1,5-bis(trifluoromethyl)-N-(2-(2-(trifluoromethyl)pyridin-4-yl)-4,5,6,7-tetrahydropyrazolo[1,5-a]pyridin-4-yl)-1H-pyrazole-4-carboxamide], for which the IC50 is less than 250 nM.

Compound `Cn1nc(C(F)(F)F)cc1C(=O)N[C@H]1CCCn2nc(-c3cnc(C(F)(F)F)s3)cc21` [Compound I-41a, (S)-1-Methyl-3-(trifluoromethyl)-N-(2-(2-(trifluoromethyl)thiazol-5-yl)-4,5,6,7-tetrahydropyrazolo[1,5-a]pyridin-4-yl)-1H-pyrazole-5-carboxamide] yielded an IC50 of less than 250 nM.

The record behind these values is US20250313548A1 (Actio Biosciences, Inc., priority 2023, published 2025).
